These results are taken from patent US9981934B2, “Enzyme-specific fluorescent compound capable of being retained in cells” (The University of Tokyo, priority 2014, dated 2018).

Experiment [1] addresses T1, β-galactosidase (Escherichia coli, UniProt P00722). The format is biochemical. The conditions noted are these: 30 minutes, 250 mM sodium phosphate buffer pH 7.4, excitation 550 nm. The protocol:
Absorption spectrum variation and fluorescence spectrum variation (excitation wavelength: 550 nm) caused by enzyme reaction of β-galactosidase and the enzyme-specific retainable fluorescent compound of the present invention 2-CHF2-HMDER-βGal, 4-CHF2-HMDER-βGal, or 4-CH2F-HMDER-βGal for 30 minutes was measured in the presence of a 250 mM sodium phosphate buffer solution (pH: 7.4). Measurement was performed using a Shimadzu UV-2450 (manufactured by Shimadzu Corporation) and a Hitachi F-7000 (manufactured by Hitachi, Ltd.).

For experiment [2], the target named is T1, β-galactosidase. The format is biochemical. The conditions noted are these: 2.5 μM compound, 0.5 mg/mL BSA; for fluorescence at the band of BSA after SDS-PAGE: 5 U β-galactosidase, excitation 488 nm. Here is the method:
(1) 2.5 μM 4-CH2F-HMDER-βGal and 0.5 mg/mL BSA, (2) 2.5 μM 4-CH2F-HMDER-βGal, 0.5 mg/mL BSA, and 5 U of β-galactosidase, (3) 2.5 μM 4-CHF2-HMDER-βGal, 0.5 mg/mL BSA, and 5 U of β-galactosidase, (4) 2.5 μM 2-CHF2-HMDER-βGal, 0.5 mg/mL BSA, and 5 U of β-galactosidase, and (5) 2.5 μM HMDER-βGal, 0.5 mg/mL BSA, and 5 U of β-galactosidase were each reacted in aqueous solution (500 mM sodium phosphate buffer solution having a pH of 7.4), after which the reaction products were subjected to SDS-PAGE (running gel: 10%, stacking gel: 4%, electrophoresis voltage: 200 V). […] After observation, each gel was Coomassie stained and the position of the BSA on the gel was confirmed (FIG. 4(b)).

In experiment [3] the target is T2, HEK-lacZ cell lysate (Escherichia coli, UniProt P00722).
T2 construct: expressed in transfected cells; host or cells: HEK cells (HEK-lacZ), used as cell lysate
T2 sequence (P00722 whole entry): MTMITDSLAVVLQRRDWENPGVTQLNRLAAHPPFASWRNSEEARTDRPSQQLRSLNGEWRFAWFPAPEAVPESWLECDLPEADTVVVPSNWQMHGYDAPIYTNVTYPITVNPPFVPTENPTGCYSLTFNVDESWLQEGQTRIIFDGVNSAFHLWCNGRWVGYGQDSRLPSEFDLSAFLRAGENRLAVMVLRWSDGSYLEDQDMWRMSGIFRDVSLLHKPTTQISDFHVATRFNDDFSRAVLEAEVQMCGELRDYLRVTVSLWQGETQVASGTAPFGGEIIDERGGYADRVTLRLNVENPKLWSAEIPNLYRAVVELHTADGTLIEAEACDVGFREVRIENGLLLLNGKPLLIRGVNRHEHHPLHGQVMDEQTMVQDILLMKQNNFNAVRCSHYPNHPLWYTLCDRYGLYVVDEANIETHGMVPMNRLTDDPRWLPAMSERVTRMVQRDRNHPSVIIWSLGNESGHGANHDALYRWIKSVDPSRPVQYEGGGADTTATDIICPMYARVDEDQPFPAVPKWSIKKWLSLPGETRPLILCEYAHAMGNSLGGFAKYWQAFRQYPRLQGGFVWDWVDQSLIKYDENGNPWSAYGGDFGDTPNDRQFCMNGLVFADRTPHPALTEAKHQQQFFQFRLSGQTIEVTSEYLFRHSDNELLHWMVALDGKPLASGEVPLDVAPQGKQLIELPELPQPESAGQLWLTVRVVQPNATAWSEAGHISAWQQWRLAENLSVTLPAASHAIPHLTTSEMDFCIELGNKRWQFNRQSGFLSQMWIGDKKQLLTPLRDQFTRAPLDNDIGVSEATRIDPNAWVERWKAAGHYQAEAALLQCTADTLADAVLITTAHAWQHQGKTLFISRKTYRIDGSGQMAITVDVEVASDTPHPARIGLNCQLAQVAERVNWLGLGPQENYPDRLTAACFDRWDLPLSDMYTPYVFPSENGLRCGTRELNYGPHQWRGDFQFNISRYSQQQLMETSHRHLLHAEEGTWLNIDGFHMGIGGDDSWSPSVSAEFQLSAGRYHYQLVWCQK
In kind it is biochemical. The conditions noted are these: 2.5 μM compound; for fluorescence labeling of intracellular protein after SDS-PAGE: 1.5 mg/mL HEK-lacZ cell lysate, 30 minutes 37° C. From the text:
HEK cells (HEK-lacZ cells) expressing β-galactosidase and HEK cells were used.

Experiment [4] relates to Wing primordia (wing discs) of a (en-lacZ) fruit fly expressing β-galactosidase. Put plainly: Fluorescence imaging of non-fixed biological tissue having β-galactosidase activity. To be noted: 20 μM, 30 minutes, room temperature.
From the text: The observation conditions were as follows: Ar: 40% to 25%, excitation light: 314 nm, emission wavelength: 535 to 595 nm (HyD2), 20× magnification.
The subject of experiment [5] is wing primordia (wing discs) with arm-lacZ / His2Av-mRFP1 cells. To be noted: 10 μM, 30 minutes, non-fixed wing primordia.
Method: A male His2Av-mRFP1, FRT80B/TM6B fruit fly (Drosophila melanogaster) and a female hs-flp; arm-lacZ FRT80B fruit fly were crossed, a heat shock at a temperature of 37° C. for 1 hour was applied to the offspring at the first-instar larval stage 30 hours after hatching thereof, and cells having the following three genotypes were expressed in the wing primordia (wing discs): (1) cells expressing only β-galactosidase (arm-lacZ), (2) cells expressing only red fluorescent protein (mRFP1) (His2Av-mRFP1), and (3) cells expressing both β-galactosidase and mRFP1 (arm-lacZ/His2Av-mRFP1). […] The observation conditions were as follows: (4-CH2F-HMDER-βGal) excitation light: 514 nm, observation wavelength: 525 to 585 nm, (mRFP1) excitation light: 594 nm, emission wavelength: 610 to 700 nm, 63× magnification.
Experiment [6] relates to fruit fly (esg-lacZ) expressing β-galactosidase in the midgut. To be noted: midgut fixed with 4% PFA, reacted 10 minutes. The protocol:
A fruit fly (esg-lacZ) expressing β-galactosidase in the midgut thereof was dissected and fixed with 4% FPA. Then, 4-CH2F-HMDER-βGal was added and reacted for 10 minutes.

The test system of experiment [7] is HEK-lacZ cells. Put plainly: Fluorescence imaging of living cells expressing β-galactosidase (confocal microscope). To be noted: for fluorescence imaging of β-galactosidase activity of individual cells: mixture of HEK-LacZ cells and HEK cells, without washing.
Method: HEK cells, HEK-lacZ cells, and a mixture thereof were incubated (at 37° C. in the presence of 5% CO2) for 30 minutes together with 1 μM 4-CH2F-HMDER-βGal or HMDER-βGal, after which a fluorescence image and a differential interference image (DIC) of the cells were acquired using a confocal microscope, before and after washing twice with culture medium. […] A TCS SP5 X (manufactured by Leica) equipped with white light laser and an HCX PL APO CS 40×/1.25 objective lens (manufactured by Leica) was used as the confocal microscope, which was controlled by LAS AF software. The observation conditions were as follows: white light laser (WLL): 80% to 25%, excitation wavelength: 525 nm, observation wavelength: 535 to 595 nm, gain: 800 V (PMT1)/350 V (Scan-DIC), offset: 0%, pinhole: 67.88 μM (Airy disk).
The test system of experiment [8] is ovarian cancer cells SHIN3. To be noted: intraperitoneal administration, observed 1 hour later, SHIN3 cancer model mouse. The protocol:
A cancer model mouse inoculated with ovarian cancer cells SHIN3 was produced. Acidic β-galactosidase activity is known to be elevated in ovarian cancer cells. 4-CH2F-HMDER-βGal was intraperitoneally administered to the cancer model mouse, and fluorescence was observed 1 hour later using a Maestro in-vivo imaging system (CRi). The observation conditions were as follows: excitation light: 490 to 530 nm, observation wavelength: 550 to 800 nm.

Experiment [9] deals with fruit fly fat body overexpressing β-galactosidase. To be noted: 10 μM, fat bodies of third-instar fly.
Method: In order to analyze cells in fruit fly (Drosophila melanogaster) fat body, overexpression of β-galactosidase was induced by crossing UAS-lacZ with hs-flp^122; Actin>y>Gal4 using a flip-out technique. To perform living-cell fluorescence imaging, fat bodies were dissected from a third-instar (final instar) fly and incubated for 29 minutes in a culture medium including 10 μM 4-CH2F-HMDER-βGal and 16 μM Hoechst 33342 (cell nuclear stain), and the fat bodies were washed with PBS and immersed in 80% glycerol. To perform immunostaining, the dissected adipocytes were immersed for 20 minutes in PBS containing 4% paraformaldehyde (PFA) and fixed. […] The observation conditions were as follows: (Hoeschst 33342) excitation light: 405 nm, observation wavelength: 415 to 490 nm, (4-C2F-HMDER-βGal) excitation light: 514 nm, observation wavelength: 525 to 600 nm, (Alexa 647 modified secondary antibodies) excitation light: 633 nm, observation wavelength: 640 to 700 nm, 40× magnification.
Experiment [10] has as its system HEK-lacZ cells. Put plainly: Detection of β-galactosidase activity in living cells using flow cytometry. The format is cell-based. To be noted: mixture of HEK-LacZ and HEK cells, 1 μM, 30 minutes, excitation 488 nm. Here is the method: These cells were analyzed by excitation light having a wavelength of 488 nm using an Accuri C6 (Accuri Cytometers, Inc.) flow cytometer.
A general note: A flow cytometer gives signals particle by particle.

T1 sequence (P00722 2-1024): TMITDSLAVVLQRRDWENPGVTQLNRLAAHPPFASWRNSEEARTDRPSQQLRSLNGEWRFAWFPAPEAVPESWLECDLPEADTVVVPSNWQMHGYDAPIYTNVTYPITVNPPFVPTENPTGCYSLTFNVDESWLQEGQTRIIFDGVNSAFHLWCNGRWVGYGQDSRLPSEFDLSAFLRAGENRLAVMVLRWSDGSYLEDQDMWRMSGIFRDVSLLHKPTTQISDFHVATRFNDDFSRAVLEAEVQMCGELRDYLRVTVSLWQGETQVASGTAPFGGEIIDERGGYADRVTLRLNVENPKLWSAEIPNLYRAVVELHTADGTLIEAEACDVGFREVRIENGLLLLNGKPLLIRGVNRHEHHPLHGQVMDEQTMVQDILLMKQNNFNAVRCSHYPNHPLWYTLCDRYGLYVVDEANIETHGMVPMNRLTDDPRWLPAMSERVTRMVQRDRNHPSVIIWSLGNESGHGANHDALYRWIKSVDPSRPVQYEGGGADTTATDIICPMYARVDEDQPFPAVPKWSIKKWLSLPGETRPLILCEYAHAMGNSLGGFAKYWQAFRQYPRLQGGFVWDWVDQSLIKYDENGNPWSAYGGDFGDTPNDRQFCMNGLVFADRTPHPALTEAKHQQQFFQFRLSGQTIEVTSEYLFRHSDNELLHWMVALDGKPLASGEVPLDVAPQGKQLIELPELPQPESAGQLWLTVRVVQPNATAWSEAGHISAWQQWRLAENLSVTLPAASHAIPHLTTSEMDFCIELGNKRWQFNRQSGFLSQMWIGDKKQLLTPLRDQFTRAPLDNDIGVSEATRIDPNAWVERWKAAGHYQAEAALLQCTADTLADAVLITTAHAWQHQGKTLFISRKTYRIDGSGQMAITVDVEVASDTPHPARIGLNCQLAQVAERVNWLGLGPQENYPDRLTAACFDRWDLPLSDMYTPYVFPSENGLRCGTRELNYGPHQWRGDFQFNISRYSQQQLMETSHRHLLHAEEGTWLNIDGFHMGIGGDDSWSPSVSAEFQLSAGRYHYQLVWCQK

As to `CCN(CC)c1ccc2c(c1)Oc1cc(O[C@@H]3O[C@H](CO)[C@H](O)[C@H](O)[C@H]3O)c(C(F)F)cc1C21OCc2ccccc21` (stereo partly drawn) [2-CHF2-HMDER-βGal, (2S,3R,4S,5R,6R)-2-((6′-(diethylamino)-2′-(difluoromethyl)-3H-spiro[isobenzofuran-1,9′-xanthen]-3′-yl)oxy)-6-(hydroxymethyl)tetrahydro-2H-pyran-3,4,5-triol], in experiment [1], the “fluorescence emission as a result of enzyme reaction with β-galactosidase” value (“fluorescence emission as a result” for short) is reported as “emitted fluorescence”. Besides, the “fluorescence at the band of BSA after SDS-PAGE” value in experiment [2] is given as “Fluorescence was observed at the band of BSA”. Moreover, in experiment [3], the “fluorescence labeling of intracellular protein after SDS-PAGE” value is given as “Fluorescence labeling to the intracellular protein was confirmed”.
As to `CCN(CC)c1ccc2c(c1)Oc1c(ccc(O[C@@H]3O[C@H](CO)[C@H](O)[C@H](O)[C@H]3O)c1CF)C21OCc2ccccc21` (some centres unmarked) [4-CH2F-HMDER-βGal], the “fluorescence emission as a result” value in experiment [1] is recorded as “emitted fluorescence”. Besides, in [4], the “selective fluorescence imaging of the region having β-galactosidase activity” value was “selective fluorescence imaging of the region of interest (posterior section) having β-galactosidase activity was possible”. Also, the “visualization of mosaic pattern of β-galactosidase-positive cells” value in experiment [5] is on record as “the mosaic pattern of the cells having the three genotypes described above was clearly visualized”. Further, the “single-cell fluorescence imaging in fixed tissue” value in experiment [6] is recorded as “it was possible to confirm a cell emitting fluorescence in a tissue”. Also, the “fluorescence of HEK-LacZ cells” value in [7] (1 μM, 30 minutes, observed without washing) is “exhibited clear fluorescence”. The “change in fluorescence intensity after washing (retention in cells)” value in experiment [7] (1 μM, 30 minutes, washed twice with culture medium) is reported as “almost no change in fluorescence intensity”. For the same compound, the “fluorescence imaging of fixed samples” value in [7] (cells fixed with 4% PFA for 10 minutes after incubation) is on record as “Fluorescence imaging with the fixed samples was also possible”. Also, the “fluorescence imaging of β-galactosidase activity of individual cells” value in experiment [7] (1 μM, 30 minutes) was “a definite difference in fluorescence level among individual cells was observed”. In experiment [8], the cancer-site-selective fluorescence imaging entry is recorded as “can be applied in cancer-site-selective fluorescence imaging”. The “fluorescence at the band of BSA after SDS-PAGE” value in experiment [2] is “Fluorescence was observed at the band of BSA”. Besides, in experiment [2] (no β-galactosidase (lane 1)), the “fluorescence at the band of BSA after SDS-PAGE, sample not including β-galactosidase” value is reported as “Fluorescence was not observed”. Further, the “fluorescence imaging of β-galactosidase-expressing cells in fat body” value in experiment [9] is recorded as “it is possible to perform fluorescent imaging of cells of interest in which β-galactosidase is expressed”. For the same compound, the “differentiation of HEK-LacZ cells and HEK cells by flow cytometry” value in experiment [10] is reported as “possible to clearly differentiate between these cell types”. The “fluorescence labeling of intracellular protein after SDS-PAGE, HEK cells not expressing β-galactosidase” value in experiment [3] (1.5 mg/mL HEK cell lysate (lane 1)) is “Fluorescence was not confirmed”. The “fluorescence labeling of intracellular protein after SDS-PAGE” value in [3] is on record as “Fluorescence labeling to the intracellular protein was confirmed”.
With `CCN(CC)c1ccc2c(c1)Oc1c(ccc(O[C@@H]3O[C@H](CO)[C@H](O)[C@H](O)[C@H]3O)c1C(F)F)C21OCc2ccccc21` (stereo partly drawn) [4-CHF2-HMDER-βGal, (2S,3R,4S,5R,6R)-2-((3′-(diethyiamino)-5′-(difluoromethyl)-3H-spiro[isobenzofuran-1,9′-xanthen]-6′-yl)-oxy)-6-(hydroxymethyl)tetrahydro-2H-pyran-3,4,5-triol], the “fluorescence emission as a result” value in experiment [1] was “emitted fluorescence”. In addition, in experiment [2], the “fluorescence at the band of BSA after SDS-PAGE” value is reported as “Fluorescence was observed at the band of BSA”. The “fluorescence labeling of intracellular protein after SDS-PAGE” value in [3] was “Fluorescence labeling to the intracellular protein was confirmed”.
As for `CCN(CC)c1ccc2c(c1)Oc1cc(OC3OC(CO)C(O)C(O)C3O)ccc1C21OCc2ccccc21` (centres unmarked) [HMDER-βGal, reference compound], the “selective fluorescence imaging of the region having β-galactosidase activity” value in [4] is listed as “the region of interest having β-galactosidase activity could not be discerned”. Also, the “fluorescence imaging of β-galactosidase activity of individual cells” value in [7] (1 μM, 30 minutes) is given as “fluorescence imaging of β-galactosidase activity of individual eels was not possible”. The “fluorescence at the band of BSA after SDS-PAGE” value in [2] was “Fluorescence was not observed”. For the same compound, the “differentiation of HEK-LacZ cells and HEK cells by flow cytometry” value in experiment [10] is reported as “the cells could not be differentiated”. The “fluorescence labeling of intracellular protein after SDS-PAGE” value in experiment [3] is on record as “Fluorescence was not confirmed”.
